# Values joined by “and” are separate entries in the source; they are usually repeats but may differ in a detail not shown here. Identical values can stand only once.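 Interpolation was linear, between the two tested concentrations surrounding the appropriate level; five concentrations were tested over 48 hours in 96-well plates. GI50 marks 50% less growth. TGI: concentration producing complete growth inhibition.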 *1 amine or outer side, *2 acyl side, *3 side chain or, on linkers, in order; H or OH if unused. Where a SMILES comes first, the peptide text is derived from it. Bridges are numbered along the chain shown (N, C = ends). Roman numbers before positions name the chains, in order. [ ]: non-standard residue; d: D form. Actinocin(9to1) = Cc1c2oc3c(C)ccc(C(=O)[*:1])c3nc-2c(C(=O)[*:2])c(N)c1=O; NMeF = CN[CH](Cc1ccccc1)C(=O)O; Sar = CNCC(=O)O
# Assays:
# Test in all cases: NCI tumour cell line growth inhibition, 48 h
# [1] = test system: 786-0 renal
# [2] = test system: A549 NSCLC
# [3] = test system: CCRF-CEM leukemia
# [4] = test system: KM12 colon
# [5] = test system: MDA-MB-231 breast
# [6] = test system: MOLT-4 leukemia
# [7] = test system: NCI-H23 lung
# [8] = test system: OVCAR-4 ovarian
# [9] = test system: RPMI-8226 leukemia
# [10] = test system: RXF 393 renal
SMILES,GI50 [1],TGI [1],GI50 [2],TGI [2],GI50 [3],TGI [3],GI50 [4],TGI [4],GI50 [5],TGI [5],GI50 [6],TGI [6],GI50 [7],TGI [7],GI50 [8],TGI [8],GI50 [9],TGI [9],GI50 [10],TGI [10]
Nc1ncc(-c2cccc(S(N)(=O)=O)c2)c2scc(-c3ccc(F)c(Cl)c3)c12,6.02 µM,17 µM,6.76 µM,> 25 µM,6.12 µM,> 22.2 µM,5.56 µM,14.7 µM,5.94 µM,> 25 µM,5.35 µM,> 19.2 µM,7.05 µM,> 21 µM,6.65 µM,> 23.7 µM,4.92 µM,14.9 µM,3.79 µM,9.43 µM
CC(C)(C)c1ccc(NS(=O)(=O)c2ccc3nc(NC(=O)c4cnccn4)[nH]c3c2)cc1,3.35 µM,14.8 µM,2.58 µM,16.5 µM,3.2 µM,> 100 µM,2.16 µM,13.9 µM,4.34 µM,17.1 µM,5 µM,57.4 µM,3.19 µM,15.4 µM,5.37 µM,19.3 µM,4.51 µM,> 100 µM,1.41 µM,4.28 µM
C[C@@H]1COCCN1c1cc(C2(O)C[C@H]3CC[C@@H](C2)O3)c2cnn(-c3ccn[nH]3)c2n1 (stereo not given in full),0.0479 µM,> 100 µM,0.0651 µM,1.13 µM,0.0382 µM,> 100 µM,0.167 µM,9.73 µM,0.138 µM,5.68 µM,0.0437 µM,> 67.3 µM,0.0286 µM,0.188 µM,0.0397 µM,0.419 µM,0.162 µM,3.72 µM,< 0.0161 µM,0.0581 µM
Cc1ccc(-c2cc(O)c(-c3ccc(C)cc3C)cc2O)c(C)c1,7.65 µM,21.2 µM,3.8 µM,21.6 µM,3.65 µM,> 100 µM,8.2 µM,26.8 µM,3.94 µM,21 µM,6.23 µM,> 100 µM,7.43 µM,26.2 µM,4.27 µM,18.5 µM,4.93 µM,55 µM,5.6 µM,19.7 µM
CC[C@H](C)C(=O)O[C@H]1C[C@H](O)C=C2C=C[C@H](C)[C@H](CC[C@@H](O)C[C@@H](O)CC(=O)O)[C@H]21,> 100 µM,> 100 µM,> 100 µM,> 100 µM,> 100 µM,> 100 µM,> 100 µM,> 100 µM,> 100 µM,> 100 µM,> 100 µM,> 100 µM,> 100 µM,> 100 µM,> 100 µM,> 100 µM,> 100 µM,> 100 µM,> 100 µM,> 100 µM
COc1ccc2ccc3oc([N+](=O)[O-])cc3c2c1,0.316 µM,1.1 µM,0.197 µM,0.543 µM,0.193 µM,10.6 µM,0.417 µM,2.09 µM,0.208 µM,0.723 µM,0.0745 µM,> 100 µM,0.198 µM,0.572 µM,0.828 µM,5.41 µM,0.333 µM,5.92 µM,0.141 µM,0.316 µM
O=[N+]([O-])c1cccc2nccc(NCCCO)c12,–,37 µM,–,49 µM,–,57.5 µM,–,24.6 µM,–,41.4 µM,–,45.1 µM,–,27.1 µM,–,23.8 µM,–,46.6 µM,–,21.5 µM
Cc1c(Cl)cccc1NC(=O)c1sc2nc3c(cc2c1N)CCCCC3,0.207 µM,14 µM,0.725 µM,> 50 µM,0.257 µM,> 50 µM,0.236 µM,> 50 µM,0.827 µM,> 50 µM,0.275 µM,> 50 µM,0.391 µM,> 50 µM,5.28 µM,> 50 µM,0.434 µM,> 50 µM,0.217 µM,5.57 µM
O=c1oc2c(C(F)(F)F)cccc2cc1-c1csc(Nc2ccc(OCCF)cc2)n1,0.0611 µM,–,0.0391 µM,18.8 µM,0.0353 µM,> 69.2 µM,0.0375 µM,17.5 µM,0.0663 µM,> 35.9 µM,0.0418 µM,> 100 µM,0.0544 µM,23.4 µM,0.077 µM,> 66.7 µM,0.0406 µM,42.7 µM,0.0343 µM,18.2 µM
CC(C)=CCCC(C)C1=C(O)C(=O)C(C)=CC1=O (stereo not given),–,26.9 µM,–,> 100 µM,–,> 20.5 µM,–,34.6 µM,–,7.94 µM,–,5.12 µM,–,34 µM,–,17.4 µM,–,> 100 µM,–,17.8 µM
O=C(c1ccccc1)c1c(C(F)(F)F)n([O-])c2ccc(C(F)(F)F)cc2[n+]1=O,0.167 µM,0.307 µM,0.14 µM,0.278 µM,0.281 µM,1.41 µM,0.385 µM,0.903 µM,0.185 µM,0.354 µM,0.0902 µM,0.313 µM,0.503 µM,1.13 µM,0.156 µM,0.36 µM,0.286 µM,0.883 µM,0.175 µM,0.342 µM
O=C(/C=C\c1ccccc1)N1CCc2ccccc2C1,–,> 100 µM,–,–,–,91.3 µM,–,> 100 µM,–,> 100 µM,–,–,–,51.9 µM,–,> 100 µM,–,52.4 µM,–,> 100 µM
"Cc1c2oc3c(C)ccc(C(=O)NC4C(=O)NC(C(C)C)C(=O)N5CCCC5C(=O)N(C)CC(=O)N(C)C(Cc5ccccc5)C(=O)OC4C)c3nc-2c(C(=O)NC2C(=O)NC(C(C)C)C(=O)N3CCCC3C(=O)N(C)CC(=O)N(C)C(Cc3ccccc3)C(=O)OC2C)c(N)c1=O (stereo not given) (I: TVP[Sar][NMeF] / II: TVP[Sar][NMeF]; ester I:1-I:C, II:1-II:C; linker I:N-II:N via Actinocin(9to1); configuration not given here)",< 0.01 µM and 0.00327 µM,> 1 µM,< 0.01 µM and 0.00145 µM,0.295 µM and > 1 µM,0.000459 µM,0.0102 µM,–,–,< 0.01 µM and 0.0317 µM,–,0.000346 µM,0.00414 µM,–,< 0.01 µM and 0.0376 µM,–,< 0.0109 µM and 0.033 µM,–,> 1 µM,–,< 0.01 µM and 0.0305 µM

# Source: PubChem BioAssay (NCI)
